According to paper PMC13289212, “HIVIL: A human in vitro inflammatory liver model recapitulates immune-associated drug effects with high predictivity” (NAM journal, 2025):
Where two headings read alike, the source gives them in different places.

Legend:
IL-6 [1] = experiment: IL-6 ELISA in HIVIL (iKCs co-cultured with iHeps, LPS, 48 hr); type: cell-based, human; details: for IL-6 response: result in words; for IC50: Homo sapiens, LPS, 48 hr
Source text: Human iPSC cell line iPS (IMR90)-4 was purchased from WiCell Research Institute (Madison, WI), and maintained with a feeder-free method according to the instruction from […] Technologies (Vancouver, BC, Canada). The protocol of differentiation towards iKCs and iHeps as described previously with slight modification ([Tasnim et al., 2019]; [Cai et al., 2012]), respectively. […] More details are provided in Supplementary Methods. After differentiation, iKCs was harvested using 0.05 % trypsin-EDTA (Gibco, Waltham, Massachusetts, USA), while iHeps were dissociated with TrypLE^TM (Gibco). iHep suspension was further filtered through a 40 µm cell strainer to remove extracellular matrix clumps. Cell suspension was centrifuged at 1000 rpm for 5 min. For co-culture set up, tissue culture plates were coated with Rat tail collagen I (Gibco) diluted 100-fold in 0.02 N acetic acid, and incubated at 37 °C for 1 h and washed 3 times with PBS. According to the protocol optimized by [Tasnim et al. (2019)], iKCs was firstly seeded at a density of 14,000 per well on 96-well plate with Advanced DMEM (plus supplements) containing 5 % FBS. On the following day, iHeps were added at a density of 35,000 per well in Williams’ Medium E (plus supplements) (iHep: iKCs ratio = 2.5: 1). This reflects the physiological ratio of these cells in vivo under inflammatory conditions ([Tasnim et al., 2021]). Fresh media containing drugs was applied to co-cultures the next day. 50,000 cells were seeded to establish iHeps monoculture. THP-1 cells were kindly obtained from Dr. Eliza Fong and cultured as described by [Zeng et al. (2015)]. Details provided in Supplementary Methods.
(§1) Stock solutions of drugs were prepared in dimethyl sulfoxide (DMSO) and dissolved in medium prior to use. […] For these two drugs, the highest DMSO concentration was 1 %. Supernatant was collected at 48 hr for measurement of cytokines, and remaining cells were subjected to viability assay prior to lysis for RNA extraction.
Enzyme-linked immunosorbent assay (ELISA) for measurement of cytokines: Interleukin-6 (IL-6), interleukin-10 (IL-10) and tumor necrosis factor alpha (TNFα) levels in the media were measured using the corresponding human-based ELISA kits (Abcam, Cambridge, United Kingdom) according to manufacturer’s instructions. The cytokine production from dosed cells was normalized with the viability value from the same well. The normalized cytokine level upon drug treatments was further presented as percentage of DMSO+LPS. […] This normalization approach has been used in previous studies (Rose et al. 2016).

[2] = system: HIVIL (iKCs co-cultured with iHeps); experiment: AlamarBlue cell viability in HIVIL; details: for IC50: Homo sapiens
Description: as §1

IL-6 [3] = experiment: IL-6 ELISA in iPSC(F4)-derived HIVIL; type: cell-based, human; details: result in words
Description: (§2) Enzyme-linked immunosorbent assay (ELISA) for measurement of cytokines: Interleukin-6 (IL-6), interleukin-10 (IL-10) and tumor necrosis factor alpha (TNFα) levels in the media were measured using the corresponding human-based ELISA kits (Abcam, Cambridge, United Kingdom) according to manufacturer’s instructions. The cytokine production from dosed cells was normalized with the viability value from the same well. The normalized cytokine level upon drug treatments was further presented as percentage of DMSO+LPS. Normalization to viability per well ensures that any changes in cytokines are not due to changes in cell numbers upon drug treatment and normalization to DMSO+LPS allows better comparison between different batches of experiments. This normalization approach has been used in previous studies (Rose et al. 2016).

IL-6 [4] = experiment: IL-6 production of iKC mono-culture; type: cell-based, human; details: result in words
Description: as §2

IL-10 [5] = system: IL-10; parameters: method as in Bekker et al. 2016; details: ref Bekker et al. 2016; cited from earlier work
cytokines = system: cytokines; parameters: method as in ref Ganey et al. 2004; Honarmand et al. 2012; Manna and Aggarwal 1999; Yao et al. 2004; details: ref Ganey et al. 2004; Honarmand et al. 2012; Manna and Aggarwal 1999; Yao et al. 2004; cited from earlier work
IL-6 [6] = details: other in vitro models deploying 1-10 μg/mL of LPS; ref Jiang et al. 2019; Li et al. 2020; cited from earlier work
[7] = FDA-labeling information; ref Chen et al. 2016; cited from earlier work
IL-10 [8] = experiment: IL-10 ELISA in HIVIL (iKCs co-cultured with iHeps, LPS, 48 hr); type: cell-based, human; details: result in words
Source text: Human iPSC cell line iPS (IMR90)-4 was purchased from WiCell Research Institute (Madison, WI), and maintained with a feeder-free method according to the instruction from […] Technologies (Vancouver, BC, Canada). The protocol of differentiation towards iKCs and iHeps as described previously with slight modification ([Tasnim et al., 2019]; [Cai et al., 2012]), respectively. […] More details are provided in Supplementary Methods. After differentiation, iKCs was harvested using 0.05 % trypsin-EDTA (Gibco, Waltham, Massachusetts, USA), while iHeps were dissociated with TrypLE^TM (Gibco). iHep suspension was further filtered through a 40 µm cell strainer to remove extracellular matrix clumps. Cell suspension was centrifuged at 1000 rpm for 5 min. For co-culture set up, tissue culture plates were coated with Rat tail collagen I (Gibco) diluted 100-fold in 0.02 N acetic acid, and incubated at 37 °C for 1 h and washed 3 times with PBS. […]
Enzyme-linked immunosorbent assay (ELISA) for measurement of cytokines: Interleukin-6 (IL-6), interleukin-10 (IL-10) and tumor necrosis factor alpha (TNFα) levels in the media were measured using the corresponding human-based ELISA kits (Abcam, Cambridge, United Kingdom) according to manufacturer’s instructions. […]

IL-6 [9] = experiment: IL-6 response in HIVIL using THP-1 macrophages co-cultured with iHeps; type: cell-based, human; details: HIVIL with THP-1 instead of iKCs, result in words
Source text: Human iPSC cell line iPS (IMR90)-4 was purchased from WiCell Research Institute (Madison, WI), and maintained with a feeder-free method according to the instruction from […] Technologies (Vancouver, BC, Canada). The protocol of differentiation towards iKCs and iHeps as described previously with slight modification ([Tasnim et al., 2019]; [Cai et al., 2012]), respectively. The re-optimized protocol to generate iKCs is discussed in Results section. More details are provided in Supplementary Methods. After differentiation, iKCs was harvested using 0.05 % trypsin-EDTA (Gibco, Waltham, Massachusetts, USA), while iHeps were dissociated with TrypLE^TM (Gibco). iHep suspension was further filtered through a 40 µm cell strainer to remove extracellular matrix clumps. Cell suspension was centrifuged at 1000 rpm for 5 min. For co-culture set up, tissue culture plates were coated with Rat tail collagen I (Gibco) diluted 100-fold in 0.02 N acetic acid, and incubated at 37 °C for 1 h and washed 3 times with PBS. According to the protocol optimized by [Tasnim et al. (2019)], iKCs was firstly seeded at a density of 14,000 per well on 96-well plate with Advanced DMEM (plus supplements) containing 5 % FBS. On the following day, iHeps were added at a density of 35,000 per well in Williams’ Medium E (plus supplements) (iHep: iKCs ratio = 2.5: 1). This reflects the physiological ratio of these cells in vivo under inflammatory conditions ([Tasnim et al., 2021]). Fresh media containing drugs was applied to co-cultures the next day. 50,000 cells were seeded to establish iHeps monoculture. THP-1 cells were kindly obtained from Dr. Eliza Fong and cultured as described by [Zeng et al. (2015)]. Details provided in Supplementary Methods.
THP-1 maintenance and differentiation: THP-1 monocytic lineage was maintained in RPMI 1640 with 10% FBS. For differentiation to macrophages, suspension cells were collected and subjected to 2-day phorbol 12-myristate 13-acetate (PMA) treatment (50 ng/ml), followed by a 1-day PMA-free medium resting. THP-1 macrophages were trypsinzed and used for co-culture as described in Material and methods.
as §2

[10] = Cammett et al. 2009, Mendes et al. 2014, cited from earlier work
IL-6 [11] = system: IL-6; parameters: method as in Steuerwald et al. 2013; Mahdy et al. 2002; Kang et al. 2001; details: ref Steuerwald et al. 2013; Mahdy et al. 2002; Kang et al. 2001; cited from earlier work
IL-10 [12] = system: IL-10; parameters: method as in Mahdy et al. 2002; details: ref Mahdy et al. 2002; cited from earlier work
PHH-PHKC co-culture = system: PHH-PHKC co-culture; parameters: method as in Messner et al., 2013; Sarkar et al., 2017; details: ref Messner et al., 2013; Sarkar et al., 2017; cited from earlier work
PHH = system: PHH; parameters: method as in Mennecozzi et al., 2015; details: ref Mennecozzi et al., 2015; read-out: IC50 in PHH mono-cultures; cited from earlier work
iHeps mono-cultures = system: iHeps mono-cultures; parameters: method as in Kia et al., 2015; details: ref Kia et al., 2015; cited from earlier work
[13] = binary classification by human hepatotoxicity; ref Thakkar et al. 2020; cited from earlier work
[14] = 48 h, read-out: IC50: viability

Question: Which “reduction of IL-6 in HIVIL” value (IL-6 [1]; 2 mM) does the source give for `CC(=O)Nc1ccc(O)cc1` [APAP, acetaminophen] here?
Answer: ~50%

Question: And the “group by drug-dependent IL-6 production” value (IL-6 [1]; HIVIL)?
Answer: dose-dependent inhibition

Question: What about the “reduction of IL-6” value (IL-6 [1]; HIVIL) of the same compound?
Answer: 50%

Question: And the IL-6 response (IL-6 [1]; HIVIL)?
Answer: decreased

Question: What about the IC50 (IL-6 [1]; HIVIL) of the same compound?
Answer: 5360 µM

Question: And the IC50 [2, 14]?
Answer: 10200 µM

Question: What about the “viability profiles among iHeps, iKCs and HIVIL” value ([2]; comparison of mono-cultures and co-culture) of the same compound?
Answer: similar

Question: What about the IL-6 production (IL-6 [3]) of the same compound?
Answer: Dose-dependent decrease

Question: What about the “IL-6 / cytokine production in iKC mono-culture” value (IL-6 [4]) of the same compound?
Answer: remained unchanged

Question: And the “Reported in-vivo (murine) responses: IL-10” value (IL-10 [5])?
Answer: IL-10↓

Question: And the “Reported in-vivo (murine) responses: cytokines” value (cytokines)?
Answer: IL-6/IL-10 are protective factors

Question: And the IL-6 change (IL-6 [6])?
Answer: increased

Question: And the DILIrank [7]?
Answer: most

Question: Which results are given for `O=C(O)Cc1ccccc1Nc1c(Cl)cccc1Cl` [DIC, diclofenac]?
Answer: IL-6 response (IL-6 [1]; HIVIL): dose-dependent decrease; IC50 (IL-6 [1]; HIVIL): 112 µM; IL-10 response (IL-10 [8]): decrease; IC50 [2, 14]: 385 µM; IC50 ([2]; read-out: IC50 (drug toxicity) in HIVIL): 385 µM; drug-specific IL-6 response with THP-1 macrophages (IL-6 [9]): did not detect; IL-6 production (IL-6 [3]): Dose-dependent decrease; Cmax ([10]; ref in each cell: Ademisoye et al. 2018, Xu et al. 2008, Agabeyoglu and Incecayir 2009, Rojanasthien et al. 2007, Reunanen et al. 1992, Li et al. 2002, Hong-mei et al. 2013, Bareggi et al. 1987, Jiang et al. 2008): 8 µM; Cmax ([10]; ref in each cell: Xu et al. 2008): 8 µM; Reported human responses: IL-6 (IL-6 [11]): IL-6↓; Reported human responses: IL-10 (IL-10 [12]): IL-10↑; IC50 (PHH-PHKC co-culture): ~127 µM; IC50 (PHH): ~1000 µM; IC50 (iHeps mono-cultures): ~1000 µM; DILIrank [7]: most; DILIst [13]: 1
